In patent US11766414B2, “Compositions, delivery systems, and methods useful in tumor therapy” (Indi Molecular, Inc., priority 2020, dated 2023):
Like-named read-outs stand apart in the source and are kept apart here. One block for each compound: values may come before it. Starred links: 1 amine or outer side, 2 acyl side, 3 side chain; linkers in the order of their positions; H or OH if unused. Positions of bridges follow the written chain, without caps; N, C: chain ends. Non-standard residues stand in square brackets, D forms with d. Residues, ends and D or L forms follow the SMILES beside them. Triazole bridges read from a SMILES are 1,4-linked. *: point of attachment. DOTA = O=C(O)CN1CCN(CC(=O)O)CCN(CC(=O)*)CCN(CC(=O)O)CC1; Pteroyl = Nc1nc2ncc(CNc3ccc(C(=O)*)cc3)nc2c(=O)[nH]1; Biotin = O=C1N[C@H]2[C@H](CS[C@H]2CCCCC(=O)*)N1; Butanoyl(4-(4-I-phenyl)) = O=C(CCCc1ccc(I)cc1)*; PEG10 = NCCOCCOCCOCCOCCOCCOCCOCCOCCOCCOCCC(=O)O; Lys(N3) = [N-]=[N+]=NCCCC[C@H](N)C(=O)O; γGlu = O=C(O)[C@H](CCC(=O)[*:2])N[*:1]; Pra = C#CC[C@H](N)C(=O)O

What was measured:
[1] = Plasma protein binding, human plasma; assay type: in vitro ADME; settings: human, plasma
How it was run: (§1)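 Equilibrium dialysis across 12-14 kDa regenerated cellulose membranes, test article at 2 μM in plasma (pH adjusted to 7.0-8.0), triplicate. Incubated 4 h at 37 °C, 5% CO2, slow shaking. Both chambers quantified by LC-MS/MS.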

human recombinant NEP = human recombinant NEP (Homo sapiens, UniProt P08473); test: NEP enzymatic cleavage assay (MALDI, HPLC); assay type: biochemical; settings: for cleavage of the test article: 1 nM NEP, MALDI-TOF MS; for in vitro Assay Data (NEP assay): Table 2
Protocol: In order to test the susceptibility of GFK and MVK linkers to NEP-mediated cleavage, the peptide (Folate-hshta-Lys(MPBA)-Gly-Phe-Lys(DOTA) (SEQ ID NO:6)) was incubated with human recombinant NEP and analyzed the solution for the presence of cleaved adducts. MALDI was utilized to monitor the cleavage of a PCC heterobiligand that contains a NEP protease recognizable sequence (G-F-K). The PCC concentration was constant and the NEP concentration was titrated down from 10 nM to 1 nM, 0.1 nM, 0.01 nM, and no NEP. The NEP-mediated cleaved adduct was identified by mass. 10 μM PCC containing the GFK linker was combined with varying amounts of NEP. […] Below 0.1 nM no cleavage was observed. • Folate-hshta-Lys(MPBA)-Gly-Phe-Lys(DOTA) (SEQ ID NO:6) • Molecular weight 2231.42
The NEP-mediated cleavage was also monitored by HPLC. In agreement with the MALDI spectra, the HPLC chromatograms show depletion of the parent brush-border heterobiligand (retention time 17.1 minutes), dose-dependent on the amount of NEP spiked into the sample (10 nM, 1 nM, 0.1 nM, 0.01 nM, and no NEP). An appearance of a new peak (retention time 16.5 minutes) in concert with the depletion of the starting material is presumed to be the cleaved folate-containing peptide.
In order to test the specificity of NEP, a non-cleavable linker (PEG3) was also assayed.
To reduce the radioactive dose to the kidney, Indi ^177Lu-7327 was constructed to incorporate a GFK linker that is susceptible to cleavage by enzymes found predominately in the kidney's brush border. These enzymes cleave off the radionuclide-chelator complex, which is quickly eliminated by the kidney for excretion in the urine. The zinc metalloprotease neprilysin (NEP) is expressed with high abundance in the kidney. […] To confirm NEP-mediated cleavage of the GFK linker in Indi 7327, the peptide was incubated with recombinant human NEP at 37° C. for 1 h and analyzed by matrix-assisted laser desorption/ionization mass spectrometry (MALDI-MS) for the evolution of cleaved adducts (FIG. 42). […] The expected cleaved adduct (mass: 1283.16 m/z) appears in the samples containing 10, 1.0, and 0.1 nM NEP. […] Below 0.1 nM NEP, no cleavage was observed. In addition to confirming the selectivity of NEP for the GFK linker, it is also important to note that the remaining portions of the Indi 7327 were impervious to the enzyme.

[2] = Plasma stability, human plasma
Protocol: (§2) Plasma was thawed in a 37° C. water bath. Residual clots were removed via centrifugation at 4000 rpm for 5 minutes. The pH of the plasma was adjusted to 7.4 if required. Test articles were diluted to 100 μM by diluting a 1 mM working solution (in DMSO) with 45% methanol in water. To 98 μL of plasma was added 2 μL of the 100 μM solution, resulting in 2 μM final concentration of the test article. Samples were incubated at 37° C. in a water bath. At the indicated time points (0, 10, 30, 60, 120 minutes) 100 μL of 4% H3PO4 was added followed by 800 μL of stop solution (200 ng/mL tolbutamide and 200 ng/mL labetalol in 100% acetonitrile). The samples were centrifuged and the plasma protein-free supernatant (100 μL) was subjected to LC-MS/MS analysis.

[3] = Plasma protein binding, CD-1 mouse plasma; assay type: in vitro ADME; settings: CD-1 mouse plasma; read-out: Plasma % Bound, Mu (converted)
How it was run: as §1

[4] = Plasma stability, CD-1 mouse plasma
Protocol: as §2

[5] = target: mouse recombinant FOLR1 (rMuFOLR1) (Mus musculus, UniProt P35846); test: ELISA cross reactivity with mouse recombinant FOLR1; assay type: binding; settings: cross reactivity experiment
Text: Further evaluation of the folate-hshta (SEQ ID NO:6) Nterm heterobiligand depended on cross reactivity with mouse recombinant FOLR1 (rMuFOLR1). The heterobiligand binds to both species' variants of FOLR1 with high affinity. This observation was expected given the high homology between the two variants (approximately 92%).

OVCAR3 cells [6] = test: Competition at the cellular level with exogenous folic acid (flow cytometry); assay type: cell-based, human
Text: Competition at the cellular level was also probed.

[7] = test system: OVCAR3 FOLR1+ cells (PC-3 FOLR1− cells as negative line); test: Flow cytometry binding to FOLR1 (+) and FOLR1 (−) cell lines; assay type: cell-based, human; settings: OVCAR3 vs PC-3, flow cytometry
Protocol: Both the kyeet (SEQ ID NO:9) and hshta (SEQ ID NO:6)-derived biligands were tested by flow cytometry for binding to FOLR1 (+) and FOLR1 (−) cell lines (FIGS. 6 and 7). The human ovarian adenocarcinoma-derived cell line OVCAR3 has robust FOLR1 expression and was selected as the FOLR1 (+) cell line. The human prostate adenocarcinoma-derived cell line PC-3 was selected as a FOLR1 (−) cell line.

FOLR1 [8] = target: T1, FOLR1 (Homo sapiens, UniProt P15328); test: ELISA assay of FOLR1 binding
Text: FIG. 5 is a diagram of ELISA assay of FOLR1 binding of heterobiligands.

OVCAR3 cells [9] = test: Cell penetration / internalization assays (acid wash flow cytometry, fluorescence microscopy); assay type: cell-based, human
Protocol: FIG. 10 is a diagram of an assay for assessing cell internalization FOLR1 heterobiligands.
The folate-hshta (SEQ ID NO:6) Nterm heterobiligand was also evaluated in cell penetration imaging assays (FIG. 10). OVCAR3 and PC-3 cells were incubated with the test article at 37° C. for 1 hour. Flow cytometry analysis of the resulting treated cells indicated strong binding to FOLR1 (+) cells. To understand the proportion bound to the surface but not internalized, the cells were briefly washed with acid to liberate the non-internalized peptide.
To further understand intracellular trafficking of the Nterm heterobiligand, these dye-labeled compounds were imaged by fluorescence microscopy. The cells were counterstained with BioTracker 490, which stains membranes, and Rab5a+, an endosomal stain. […] Low levels of DyLight650 was detected within PC-3 (FOLR1−) cells. Taken together, internalization of the heterobiligand appears to be receptor driven and selective for FOLR1 (+) cells.

FOLR1 [10] = target: T1, FOLR1; test: Folic acid competition ELISA; assay type: binding
Protocol: A competition experiment was conducted to further understand the binding kinetics of the lead heterobiligand (folate-hshta (SEQ ID NO:6) Nterm heterobiligand).

[11] = human plasma
Protocol: as §2

[12] = mouse
Protocol: as §2

[13] = human plasma; remark: listed apart in the source
Protocol: as §2

human serum albumin = human serum albumin (Homo sapiens, UniProt P02768); settings: read-out: affinity for human serum albumin; cited from earlier work
[14] = human plasma, read-out: Plasma % Bound, Hu (converted)

T1 sequence (P15328 25-234): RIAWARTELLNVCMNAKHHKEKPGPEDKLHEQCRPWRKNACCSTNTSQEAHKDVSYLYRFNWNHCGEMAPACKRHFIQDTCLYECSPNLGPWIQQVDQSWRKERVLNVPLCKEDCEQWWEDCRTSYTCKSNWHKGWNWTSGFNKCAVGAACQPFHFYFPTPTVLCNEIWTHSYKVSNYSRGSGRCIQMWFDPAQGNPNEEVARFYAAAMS
human recombinant NEP, sequence (P08473 whole entry): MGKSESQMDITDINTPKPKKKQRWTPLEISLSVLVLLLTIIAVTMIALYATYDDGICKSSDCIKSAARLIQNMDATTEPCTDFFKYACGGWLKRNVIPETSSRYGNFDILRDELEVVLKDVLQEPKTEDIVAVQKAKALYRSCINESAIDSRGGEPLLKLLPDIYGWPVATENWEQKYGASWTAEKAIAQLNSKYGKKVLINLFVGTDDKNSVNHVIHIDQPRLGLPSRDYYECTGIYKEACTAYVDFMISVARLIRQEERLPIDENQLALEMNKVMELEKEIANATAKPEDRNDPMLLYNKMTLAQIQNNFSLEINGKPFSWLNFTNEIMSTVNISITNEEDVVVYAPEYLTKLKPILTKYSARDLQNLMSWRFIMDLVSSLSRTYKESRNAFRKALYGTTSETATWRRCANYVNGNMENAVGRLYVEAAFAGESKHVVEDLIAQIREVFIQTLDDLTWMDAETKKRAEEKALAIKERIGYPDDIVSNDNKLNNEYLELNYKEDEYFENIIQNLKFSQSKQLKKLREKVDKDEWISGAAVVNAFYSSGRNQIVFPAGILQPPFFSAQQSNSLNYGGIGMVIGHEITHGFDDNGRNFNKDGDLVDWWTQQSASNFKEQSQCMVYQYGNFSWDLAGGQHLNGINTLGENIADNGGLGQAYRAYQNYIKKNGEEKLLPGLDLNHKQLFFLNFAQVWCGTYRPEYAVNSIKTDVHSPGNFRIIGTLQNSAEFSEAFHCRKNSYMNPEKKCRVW
mouse recombinant FOLR1 (rMuFOLR1), sequence (P35846 25-232): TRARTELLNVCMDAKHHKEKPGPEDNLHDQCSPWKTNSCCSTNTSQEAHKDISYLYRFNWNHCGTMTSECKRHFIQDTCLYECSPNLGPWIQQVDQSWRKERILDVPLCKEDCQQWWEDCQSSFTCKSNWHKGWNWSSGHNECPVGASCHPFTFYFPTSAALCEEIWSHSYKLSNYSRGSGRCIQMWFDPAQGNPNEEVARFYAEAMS

- EC50 [5]: 0.33 nM
- greater affinity than folate itself (FOLR1 [8]; ELISA): ~30 fold
- EC50 (FOLR1 [8]; biotin-labeled constructs with MPBA or DOTA tag, read-out: EC50): 0.065 nM
- EC50 (FOLR1 [8]; cross reactivity experiment, read-out: Ec50, Human FOLR1): 0.35 nM
- binding affinity of the heterobiligand with folic acid doped in (FOLR1 [10]; folic acid from 0 to 500 nM): virtually unchanged
- binding of the heterobiligand with folic acid doped in (FOLR1 [10]; folic acid greater than 500 nM): partially compete away
Compound: C[C@H](O)[C@H]1NC(=O)[C@@H](Cc2c[nH]cn2)NC(=O)[C@@H](CO)NC(=O)[C@@H](Cc2c[nH]cn2)NC(=O)[C@@H](NC(=O)CC[C@H](NC(=O)c2ccc(NCc3cnc4nc(N)[nH]c(=O)c4n3)cc2)C(=O)O)Cc2cn(nn2)CCCC[C@@H](C(=O)NCCOCCOCCOCCOCCOCCOCCOCCOCCOCCOCCC(=O)NCCOCCOCCOCCOCCOCCOCCOCCOCCOCCOCCC(=O)N[C@@H](CCCCNC(=O)CCCC[C@@H]2SC[C@@H]3NC(=O)N[C@@H]32)C(N)=O)NC(=O)[C@@H](C)NC1=O [Folate-hshta Nterm, Folate-hshta-PEG10-PEG10-K(Biotin)] ({Pteroyl-γGlu}-[Pra][dH][dS][dH][dT][dA][Lys(N3)][PEG10][PEG10]K(Biotin)-NH2; triazole 1-7)
- percentage of OVCAR3 cells binding (OVCAR3 cells [6]; 0.1 μg/mL folate): 57%
- percentage of OVCAR3 cells binding (OVCAR3 cells [6]; no folate): 76.6%
- binding selectivity for FOLR1 (+) cells over FOLR1 (−) cells [7]: high selectivity
- percentage of positively stained cells (OVCAR3 cells [9]; OVCAR3, 37° C. 1 hour, before acid treatment): 73.4%
- percentage of positively stained cells (OVCAR3 cells [9]; OVCAR3, following acid treatment): 54.2%

- cleavage of the test article (human recombinant NEP): substantial
- in vitro Assay Data (NEP assay) (human recombinant NEP): Cleavage of -M-V-K-
Compound: CSCC[C@H](NC(=O)[C@H](CCCCNC(=O)CCCc1ccc(I)cc1)NC(=O)[C@@H]1CCCCn2cc(nn2)C[C@H](NC(=O)CC[C@H](NC(=O)c2ccc(NCc3cnc4nc(N)[nH]c(=O)c4n3)cc2)C(=O)O)C(=O)N[C@H](Cc2c[nH]cn2)C(=O)N[C@H](CO)C(=O)N[C@H](Cc2c[nH]cn2)C(=O)N[C@H]([C@H](C)O)C(=O)N[C@H](C)C(=O)N1)C(=O)N[C@H](C(=O)N[C@@H](CCCCNC(=O)CN1CCN(CC(=O)O)CCN(CC(=O)O)CCN(CC(=O)O)CC1)C(=O)O)C(C)C [compound 1306, folate-hshta-Lys(IPBA)-M-V-Lys(DOTA)] ({Pteroyl-γGlu}-[Pra][dH][dS][dH][dT][dA][Lys(N3)]K(Butanoyl(4-(4-I-phenyl)))MVK(DOTA)-OH; triazole 1-7)
- fraction unbound [1, 14]: 0.0265
- fraction unbound ([1]; species not given, read-out: bound to plasma (converted)): ~0.03
- half-life [2]: > 289 min
- fraction unbound [3]: 0.0288
- half-life [4]: > 289 min

The remaining lines, values behind:

Compound: C[C@H](O)[C@H]1NC(=O)[C@@H](Cc2c[nH]cn2)NC(=O)[C@@H](CO)NC(=O)[C@@H](Cc2c[nH]cn2)NC(=O)[C@@H](NC(=O)CC[C@H](NC(=O)c2ccc(NCc3cnc4nc(N)[nH]c(=O)c4n3)cc2)C(=O)O)Cc2cn(nn2)CCCC[C@@H](C(=O)N[C@@H](CCCCNC(=O)CCCc2ccc(I)cc2)C(=O)NCC(=O)N[C@@H](Cc2ccccc2)C(=O)N[C@@H](CCCCNC(=O)CN2CCN(CC(=O)O)CCN(CC(=O)O)CCN(CC(=O)O)CC2)C(=O)O)NC(=O)[C@@H](C)NC1=O [Compound #1307, folate-hshta-Lys(IPBA)-Gly-Phe-Lys(DOTA)] ({Pteroyl-γGlu}-[Pra][dH][dS][dH][dT][dA][Lys(N3)]K(Butanoyl(4-(4-I-phenyl)))GFK(DOTA)-OH; triazole 1-7)
- fraction unbound [1, 14]: 0.005
- cleavage of the test article (human recombinant NEP): complete
- in vitro Assay Data (NEP assay) (human recombinant NEP): Cleavage of -G-F-K-
- half-life [2]: > 289 min
- fraction unbound [3]: 0.004
- half-life [4]: > 289 min

Compound: C[C@H](O)[C@H]1NC(=O)[C@@H](Cc2cnc[nH]2)NC(=O)[C@@H](CO)NC(=O)[C@@H](Cc2cnc[nH]2)NC(=O)[C@@H](NC(=O)CC[C@H](NC(=O)c2ccc(NCc3cnc4nc(N)[nH]c(=O)c4n3)cc2)C(=O)O)Cc2cn(nn2)CCCC[C@@H](C(=O)NCC(=O)N[C@@H](Cc2ccccc2)C(=O)N[C@@H](CCCCNC(=O)CN2CCN(CC(=O)O)CCN(CC(=O)O)CCN(CC(=O)O)CC2)C(=O)O)NC(=O)[C@@H](C)NC1=O [compound 7327, folate-hshta-Gly-Phe-Lys(DOTA)] ({Pteroyl-γGlu}-[Pra][dH][dS][dH][dT][dA][Lys(N3)]GFK(DOTA)-OH; triazole 1-7)
- half-life [11]: > 4.79 days
- Plasma Stability (t 1/2), Mu [12]: Mu: >6937.7 min
- Plasma Stability (t 1/2), Hu [13]: Hu: >6937.7 min

Compound: GI48-GA: albumin-binding fragment of protein G from Streptococcus strain GI48, SEQ ID NO:33 (LAEAKVLANRELDKYGVSDYYKNLINNAKTVEGVKALIDEILAA)
- Kd (human serum albumin): 1 nM
